Experimental data from article PMC12250211, “Discovery of Novel Genes Encoding Antimicrobial Peptides from the Pedobacter silvilitoris Genome with Broad-Spectrum Antimicrobial Activity” (International Journal of Molecular Sciences, 2025).
Ends that are not written are not given here.

Legend:
[1] = system: Staphylococcus aureus (ATCC 6538); experiment: Microtiter plate antimicrobial assay (relative growth rate, A600); assay type: cell-based; settings: synthetic peptide; for MIC50: 10 mg/mL stock in distilled water, 10^6 CFU/mL, overnight culture 37 °C, A600, Figure 5B
Experimental: (§1) The cell-free supernatant of P. silvilitoris or all E. coli DH5α strains containing cloned AMPs was collected after 24 h of culture and filtered through a 0.2-μm syringe (mixed cellulose esters (MCE), Merck, Darmstadt, Germany), and finally the cell-free supernatant was used for the evaluation of antimicrobial activity. The cell-free supernatant from the E. coli DH5α, harboring only the plasmid vector without the PS_AMP genes, was confirmed as a negative control to have very little effect on antimicrobial activities. The synthesized AMPs were suspended at a concentration of 10 mg/mL in distilled water and then used for antimicrobial activity.
(§2) The antimicrobial activities against S. Typhimurium (KCTC12401), E. coli (ATCC 10536), B. cereus (ATCC 11778), S. iniae (KCTC3657), S. aureus (ATCC 6538) and C. albicans (KCTC7122) were analyzed using the microtiter plate method and expressed as minimal inhibition concentration (MIC); the bacteria pre-cultured overnight (O/N) were mixed with 10^6 CFU/mL with the cell-free supernatant or the synthetic peptides, the reaction mixtures were added to the microtiter plate, and finally the reactivity was observed by the O/N culture at 37 °C. […] The relative activity of the treated samples was then expressed as a ratio of their A600 values to that of the control.Relative growth rate = A/B A: the treated sample A600 value B: non-treated (control) A600 value

[2] = system: Escherichia coli (ATCC 10536); experiment: as above; assay type: cell-based; settings: synthetic peptide, 10 mg/mL stock in distilled water, 10^6 CFU/mL, overnight culture 37 °C, Figure 5A
Experimental: as §1, §2

Row | Sequence | MIC50 [1] [µg/mL] | estimated MIC50 ([1]; test strain not printed, AMP4.1 value agrees with the S. aureus value of b25) [µg/mL] | MIC50 [2] [µg/mL]
1 | DKGLEKTKDNFF [PS_AMP4.1] | 2200 | – | –
2 | GLFDFFKKKDKTTDEQEALDK [PS_AMP4.2] | – | 3000 | –
3 | LKLKKEQIELLKKIANK [PS_AMP11.1] | 2000 | – | 1900
